Patent US20110287933A1, “Herbicidal composition for tolerant or resistant oilseed rape crops” (BAYER CROPSCIENCE AG, priority 2010, published 2011)

Assays:
Assay type in all cases: in vivo
[1] = tested on: Lolium multiflorum; test: Greenhouse trial, post-emergence herbicidal efficacy against Lolium multiflorum; settings: scoring 14 days after application, g of ai/ha: A1.1 100, B1.1 5, C10 5, C11 15, combinations at the same rates
Experimental: (§1) The trials were carried out under greenhouse conditions (test pots, diameter 8 cm, spray application using 300 l of water/hectare, 2 repetitions, 6 to 8 plants per pot). Application was by post-emergence treatment; the species of the harmful plants and their stage of growth at the time of treatment are, indicated in the individual results tables. The application rates of the herbicidally active compounds used on their own or in combinations are likewise listed in the individual results tables.
(§2) Scoring was by visual comparison of the treated with the untreated controls (0-100% scale, 14-19 days after the application) (see details in the respective tables). The results (means for all plants per pot and means of two repetitions per pot and treatment) are lised in Tables 4 to 6 below.
(§3) 4.2 Abbreviations Used in Tables 4 to 6 • application rate g/ai=application rate in grams of active compound per hectare • ai=active ingredient (of an active compound content of 100%) • GA=glufosinate-ammonium • GA-tolerant=oilseed rape which is tolerant to GA (GMO) • E^C=expected value according to Colby, (E^C=A+B−A×B/100)=for ternary combinations: (A+B)+C−(A+B)×C/100 • E^A=expected value according to the addition method (E^A=A+B) • A=difference (%) between observed value−%−vs. expected value (%) (observed value minus expected value) • examination:—observed values for (A), (B) and (A)+(B) in % • scoring:—observed value (%) greater >than E^C/E^A: ->synergism (+Δ) • observed value (%) equal to =E^c/E^A->additive effect (+−0Δ) • observed value (%) smaller <than E^A/E^c->antagonism (−Δ)

[2] = tested on: Matricaria chamomilla; test: Greenhouse trial, post-emergence herbicidal efficacy against Matricaria chamomilla; settings: scoring 19 days after application, g of ai/ha: A1.1 100, B1.1 5, C12 50, combinations at the same rates
Experimental: as §1, §2, §3

[3] = tested on: oilseed rape (GA-tolerant); test: Greenhouse trial, crop plant compatibility in oilseed rape (GA-tolerant); settings: 2-4 oilseed rape-leaf stage
Experimental: The trials were carried out under greenhouse conditions (test pots, diameter 8 cm, spray application using 300 l of water/hectare, 2 repetitions, 6 to 8 plants per pot).
Scoring was by visual comparison of the treated with the untreated controls (0-100% scale, 14-19 days after the application) (see details in the respective tables).

[4] = tested on: Viola arvensis; test: Greenhouse trial, post-emergence herbicidal efficacy against Viola arvensis; settings: scoring 14 days after application, g of ai/ha: A1.1 100, B1.1 5, C1 25, C2 100, C3 12.5, C4 2.5, C5 50, C6 125, C7 250, C8 250, C9 5, combinations at the same rates
Experimental: as §1
Scoring was by visual comparison of the treated with the untreated controls (0-100% scale, 14-19 days after the application) (see details in the respective tables). The results (means for all plants per pot and means of two repetitions per pot and treatment) are lised in Tables 4 to 6 below. […]

[5] = Table 4, post-emergence, scoring 14 days after application, g of ai/ha: A1.1 100, B1.1 5, C1 25, C2 100, C3 12.5, C4 2.5, C5 50, C6 125, C7 250, C8 250, C9 5, combinations at the same rates, (75)* = selective only in IMI × GA tolerant crop plants
[6] = Table 5, post-emergence, scoring 14 days after application, g of ai/ha: A1.1 100, B1.1 5, C10 5, C11 15, combinations at the same rates
[7] = Table 6, post-emergence, scoring 19 days after application, g of ai/ha: A1.1 100, B1.1 5, C12 50, combinations at the same rates

| SMILES | Herbicidal efficacy % Lolium multiflorum [1] [%] | Damage to crop plants (%) oilseed rape (GA-tolerant) (≦15-20% acceptable) [3, 5] | other results |
| --- | --- | --- | --- |
| CP(=O)(O)CCC(N)C(=O)O (centres unmarked) [A1.1, glufosinate-ammonium] | 20 | 10% | Herbicidal efficacy % Matricaria chamomilla [2]: 95%; Damage to crop plants (%) oilseed rape (GA-tolerant) (≦15-20% acceptable) [3, 6]: 10%; Damage to crop plants (%) oilseed rape (GA-tolerant) (≦15-20% acceptable) [3, 7]: 10% |
| CCCN(CCC)c1c([N+](=O)[O-])cc(C(F)(F)F)cc1[N+](=O)[O-] [C8, trifluralin] | – | 0% | – |
| CC1(C)CON(Cc2ccccc2Cl)C1=O [C12, Clomazone] | – | – | Herbicidal efficacy % Matricaria chamomilla [2]: 0%; Damage to crop plants (%) oilseed rape (GA-tolerant) (≦15-20% acceptable) [3, 7]: 15% |
| Cc1cccc(C)c1N(Cn1cccn1)C(=O)CCl [C5, metazachlor] | – | 0% | – |
| CCOC(=O)[C@@H](C)Oc1ccc(Oc2nc3ccc(Cl)cc3o2)cc1 [C3, fenoxaprop-P-ethyl] | – | 15% | Herbicidal efficacy % Viola arvensis [4]: 0% |
| COCc1cnc(C2=NC(C)(C(C)C)C(=O)N2)c(C(=O)O)c1 (centres unmarked) [C9, imazamox] | – | (75)* % | – |
| O=C(O)c1nc(Cl)ccc1Cl [C1, clopyralid] | – | 0% | – |
| COC(=O)c1nc(-c2ccc(Cl)c(OC)c2F)cc(N)c1Cl [B1.1, methyl 4-amino-3-chloro-6-(4-chloro-2-fluoro-3-methoxyphenyl)pyridine-2-carboxylate] | 0 | – | Herbicidal efficacy % Matricaria chamomilla [2]: 40% |
| CCSC(C)CC1CC(=O)C(/C(CC)=N/OC/C=C/Cl)=C(O)C1 (centres unmarked) [C10, clethodim] | 50 | – | Damage to crop plants (%) oilseed rape (GA-tolerant) (≦15-20% acceptable) [3, 6]: 0% |
| CCCCCCCCSC(=O)Oc1cc(Cl)nnc1-c1ccccc1 [C7, pyridate] | – | 0% | – |
| CCCC(=NOCC)C1=C(O)CC(C2CCCSC2)CC1=O (centres unmarked) [C11, cycloxydim] | 70 | – | – |
| C[C@@H](Oc1ccc(Oc2ncc(C(F)(F)F)cc2Cl)cc1)C(=O)O [C4, haloxyfop-p] | – | – | Herbicidal efficacy % Viola arvensis [4]: 0% |
